Test results published in the OligoGym collection.
After the bases stand the sugars from the 5' end (letter, count) and the backbone: PS all phosphorothioate, else s phosphorothioate and o phosphodiester by linkage. Methylation of C is not given here. e = 2'-O-(2-methoxyethyl) (MOE); k = constrained ethyl (cEt); d = 2'-deoxy (DNA); m = 2'-O-methyl

Target: HSD17B13
Settings: ASO, HepaRG

Sequence | target mRNA inhibition (1 µM) | also measured
TGATTAATCTTGATGC (sugars k3 d10 k3, PS) | 15% | –
TGATTTAGTTGGTAGC (sugars k3 d10 k3, PS) | 79% | target mRNA inhibition (0.02 µM): 7%; target mRNA inhibition (0.078 µM): 43%; target mRNA inhibition (0.313 µM): 73%; target mRNA inhibition (1.25 µM): 84%; target mRNA inhibition (5 µM): 94%
TGCAAAATGTGATGCC (sugars k3 d10 k3, PS) | 69% | –
TGCAATAGTACTATAG (sugars k3 d10 k3, PS) | 24% | –
TGCAGAAATTCACCTT (sugars k3 d10 k3, PS) | 54% | –
TGCAGCATTGATTCGA (sugars k3 d1 m1 d8 k3, PS) | 65% | –
TGCAGCATTGATTCGA (sugars k3 d10 k3, PS) | 47% | –
TGCAGCATTGATTCGA (sugars kkdddddddddkekek, PS) | 42% | –
TGCAGTTATTAGAAGT (sugars k3 d10 k3, PS) | 46% | –
TGCATCTTAAGATACC (sugars kkdddddddddkekek, PS) | 24% | –
TGCCTGCCTATTCCAT (sugars k3 d10 k3, PS) | 40% | –
TGCTACTCTAGGAGAT (sugars k3 d10 k3, PS) | 60% | –
TGCTACTTGAACAGTC (sugars k3 d1 m1 d8 k3, PS) | 65% | –
TGCTACTTGAACAGTC (sugars k3 d10 k3, PS) | 81% | target mRNA inhibition (0.02 µM): 3%; target mRNA inhibition (0.078 µM): 22%; target mRNA inhibition (0.313 µM): 49%; target mRNA inhibition (1.25 µM): 78%; target mRNA inhibition (5 µM): 89%
TGCTACTTGAACAGTC (sugars kkdddddddddkekek, PS) | 64% | –
TGCTAGTGCCAAACCA (sugars kkdddddddddkekek, PS) | 58% | –
TGCTATAGTAATCACA (sugars k3 d10 k3, PS) | 65% | –
TGCTGCATTAATGCCA (sugars k3 d9 k3 e1, PS) | 6% | –
TGCTGCATTAATGCCA (sugars kkdddddddddkekek, PS) | 30% | –
TGCTGCTAGTGCCAAA (sugars k3 d10 k3, PS) | 58% | –
TGGAACAATATGGGAT (sugars k3 d10 k3, PS) | 46% | –
TGGAATGCTACTTGAA (sugars k3 d10 k3, PS) | 85% | target mRNA inhibition (0.02 µM): 0%; target mRNA inhibition (0.078 µM): 22%; target mRNA inhibition (0.313 µM): 55%; target mRNA inhibition (1.25 µM): 71%; target mRNA inhibition (5 µM): 90%
TGGATATACTGTCCCA (sugars k3 d10 k3, PS) | 24% | –

Sequence | target mRNA inhibition (1 µM) | also measured
TGGTAAACTGTATGCC (sugars k3 d10 k3, PS) | 76% | target mRNA inhibition (0.02 µM): 0%; target mRNA inhibition (0.078 µM): 3%; target mRNA inhibition (0.313 µM): 40%; target mRNA inhibition (1.25 µM): 72%; target mRNA inhibition (5 µM): 85%
TGGTAAGTATTCCATC (sugars k3 d10 k3, PS) | 26% | –
TGGTAGCTTGCTCACT (sugars k3 d10 k3, PS) | 71% | target mRNA inhibition (0.02 µM): 16%; target mRNA inhibition (0.078 µM): 31%; target mRNA inhibition (0.313 µM): 48%; target mRNA inhibition (1.25 µM): 72%; target mRNA inhibition (5 µM): 81%
TGGTCTAAAGTGCTGG (sugars k3 d10 k3, PS) | 61% | –
TGTAAGAGTCAGTATC (sugars k3 d9 k3 e1, PS) | 46% | –
TGTAAGAGTCAGTATC (sugars k3 d10 k3, PS) | 43% | –
TGTACAAATTTATGCC (sugars k3 d10 k3, PS) | 67% | –
TGTAGTGGGAGTCGGA (sugars k3 d10 k3, PS) | 62% | –
TGTAGTGGGAGTCGGA (sugars kkdddddddddkekek, PS) | 27% | –
TGTATAGCTGCATTTC (sugars k3 d10 k3, PS) | 37% | –
TGTATTAAGACAGTTG (sugars k3 d10 k3, PS) | 34% | –
TGTCATAAAAATCGCT (sugars k3 d10 k3, PS) | 57% | –
TGTCCACCTTTAAATG (sugars k3 d9 k3 e1, PS) | 28% | –
TGTCCAGGTTGAGATA (sugars k3 d1 m1 d8 k3, PS) | 41% | –
TGTCCAGGTTGAGATA (sugars kkdddddddddkekek, PS) | 48% | –
TGTGATTGAGTTCTCC (sugars k3 d1 m1 d8 k3, PS) | 34% | –
TGTGTTCTTGTTGATA (sugars k3 d9 k3 e1, PS) | 65% | –
TGTTATCTCAAGTCAG (sugars k3 d10 k3, PS) | 81% | target mRNA inhibition (0.02 µM): 0%; target mRNA inhibition (0.078 µM): 0%; target mRNA inhibition (0.313 µM): 31%; target mRNA inhibition (1.25 µM): 54%; target mRNA inhibition (5 µM): 81%
TGTTTTAGTATTTGGG (sugars k3 d10 k3, PS) | 48% | –
TTAAACCTTCCCTGTG (sugars kkdddddddddkekek, PS) | 0% | –
TTAAGATACCCAGGTT (sugars k3 d9 k3 e1, PS) | 51% | –
TTAAGATACCCAGGTT (sugars kkdddddddddkekek, PS) | 48% | –
TTAAGGATCATTGCAG (sugars k3 d10 k3, PS) | 14% | –

Sequence | target mRNA inhibition (1 µM) | also measured
TTAATACGACTTCCTT (sugars k3 d10 k3, PS) | 35% | –
TTAATGCCACCCTACC (sugars kkdddddddddkekek, PS) | 11% | –
TTAATTTTCGGGTTCT (sugars k3 d10 k3, PS) | 31% | –
TTACAGCATCAAGACA (sugars k3 d9 k3 e1, PS) | 44% | –
TTACAGCATCAAGACA (sugars k3 d10 k3, PS) | 46% | –
TTAGAAACTGCTCCTC (sugars k3 d10 k3, PS) | 48% | –
TTAGAATACGCTGAGA (sugars k3 d10 k3, PS) | 48% | –
TTAGAGTGCTTAGTTC (sugars k3 d10 k3, PS) | 58% | –
TTAGGGAGGTAGCTTT (sugars k3 d10 k3, PS) | 54% | –
TTAGTACCAAGACACT (sugars k3 d10 k3, PS) | 41% | –
TTAGTATTTGGGTGTT (sugars k3 d10 k3, PS) | 29% | –
TTAGTTAGAATAGTCT (sugars k3 d10 k3, PS) | 8% | –
TTATAACTACAAGAGG (sugars kkdddddddddkekek, PS) | 55% | –
TTATAACTGAGCTAGA (sugars k3 d10 k3, PS) | 8% | –
TTATACTTTTCCGTCT (sugars k3 d10 k3, PS) | 61% | –
TTATATGAGGTCTGTA (sugars k3 d10 k3, PS) | 32% | –
TTATGAAGTTAGTATA (sugars k3 d10 k3, PS) | 31% | –
TTATGTACCAAACTTG (sugars k3 d10 k3, PS) | 53% | –
TTATGTGATTGAGTTC (sugars kkdddddddddkekek, PS) | 21% | –
TTATTGGTAAGTATTC (sugars k3 d10 k3, PS) | 17% | –
TTCACCACGATTGTTA (sugars k3 d10 k3, PS) | 40% | –
TTCATAGGGAGACCAT (sugars k3 d10 k3, PS) | 65% | –
TTCATTCGAATTTCTT (sugars k3 d10 k3, PS) | 71% | target mRNA inhibition (0.02 µM): 12%; target mRNA inhibition (0.078 µM): 10%; target mRNA inhibition (0.313 µM): 43%; target mRNA inhibition (1.25 µM): 78%; target mRNA inhibition (5 µM): 89%

Sequence | target mRNA inhibition (1 µM) | also measured
TTCCAAATCAGGTAGT (sugars k3 d10 k3, PS) | 12% | –
TTCCATCTATCAGACT (sugars k3 d10 k3, PS) | 33% | –
TTCCATCTATCAGACT (sugars kkdddddddddkekek, PS) | 33% | –
TTCCCAACGCAACAGT (sugars k3 d10 k3, PS) | 60% | –
TTCCTCCACACCGCGC (sugars k3 d10 k3, PS) | 47% | –
TTCGAAACTATTCATA (sugars k3 d10 k3, PS) | 44% | –
TTCGGCACTCAGCTGC (sugars k3 d10 k3, PS) | 41% | –
TTCTACAGAAGACTAC (sugars k3 d10 k3, PS) | 40% | –
TTCTATGCAAGCCTTC (sugars k3 d10 k3, PS) | 51% | –
TTCTCAAGGAGTACTT (sugars k3 d10 k3, PS) | 76% | –
TTCTCTCCATCATCGA (sugars k3 d10 k3, PS) | 35% | –
TTCTGTAGGACTCTGC (sugars k3 d10 k3, PS) | 72% | –
TTCTGTGGCATGGCTA (sugars k3 d10 k3, PS) | 78% | target mRNA inhibition (0.02 µM): 0%; target mRNA inhibition (0.078 µM): 0%; target mRNA inhibition (0.313 µM): 34%; target mRNA inhibition (1.25 µM): 67%; target mRNA inhibition (5 µM): 91%
TTCTTATGTAATAGCC (sugars k3 d9 k3 e1, PS) | 73% | target mRNA inhibition (0.02 µM): 17%; target mRNA inhibition (0.078 µM): 25%; target mRNA inhibition (0.313 µM): 57%; target mRNA inhibition (1.25 µM): 76%; target mRNA inhibition (5 µM): 85%
TTGAATAGCAAGCCAA (sugars k3 d1 m1 d8 k3, PS) | 30% | –
TTGAATTCACTATCTC (sugars k3 d10 k3, PS) | 45% | –
TTGATATTCTGTGGCA (sugars k3 d10 k3, PS) | 87% | target mRNA inhibition (0.02 µM): 0%; target mRNA inhibition (0.078 µM): 17%; target mRNA inhibition (0.313 µM): 58%; target mRNA inhibition (1.25 µM): 80%; target mRNA inhibition (5 µM): 94%
TTGATCTCTTAGCTGT (sugars k3 d9 k3 e1, PS) | 64% | –
TTGATCTCTTAGCTGT (sugars kkdddddddddkekek, PS) | 38% | –
TTGATTCGAAACTATT (sugars k3 d10 k3, PS) | 55% | –
TTGAUATTCTGTGGCA (sugars k3 d1 m1 d8 k3, PS) | 60% | –
TTGCAAGTTTATCAGT (sugars k3 d10 k3, PS) | 66% | –
TTGCAATAGTACTATA (sugars k3 d10 k3, PS) | 3% | –
